# Test system: skin
# Test: Test for skin accumulated stimulus, HRIPT (Human repeated insult patch tests)
# Format: in vivo
# Design: key to skin reactivity (ICDRG criteria): −: negative (no response); ±: doubtful or slight erythema, etc.; +: weak reaction (which is accompanied with no phlyctenule), erythema, papule; ++: severe reaction (which is accompanied with phlyctenule), erythema, papule, phlyctenule; +++: strong reaction, bullae reaction
# Conditions: for Number of examinees who exhibited ±, +, or ++ reactivity, 1st: 1st patch; for Number of examinees who exhibited ±, +, or ++ reactivity, 2nd: 2nd patch; for Number of examinees who exhibited ±, +, or ++ reactivity, 3rd: 3rd patch; for Number of examinees who exhibited ±, +, or ++ reactivity, 4th: 4th patch; for Number of examinees who exhibited ±, +, or ++ reactivity, 5th: 5th patch; for Number of examinees who exhibited ±, +, or ++ reactivity, 6th: 6th patch; for Number of examinees who exhibited ±, +, or ++ reactivity, 7th: 7th patch; for Number of examinees who exhibited ±, +, or ++ reactivity, 8th: 8th patch; for average reactivity: 9 patches over 3 weeks, 15 examinees, less than 3 is considered a stable composition; for Number of examinees who exhibited ±, +, or ++ reactivity, 9th: 9th patch
# Experimental: HRIPT (Human repeated insult patch tests) was conducted in order to identify skin accumulated stimulus of quercetin3-O-[3-O″-(E)-p-coumaroyl][β-D-glucopyranosyl-(1→3)-O-α-L-rhamnopyranosyl-(1→6)-O-β-D-glucopyranoside] and quercetin3-O-[3-O″-(E)-p-coumaroyl][α-L-rhamnopyranosyl-(1→6)-O-β-D-glucopyranoside] and to calculate the concentration range that can be used in skin. Specifically, 15 healthy adult examinees were randomly selected, and test compositions in which the compounds were respectively comprised in an amount of 0.5 wt. %, 1 wt. %, and 3 wt. % (the compositions for skin, comprising an emulsifying agent, a stabilizer, purified water, etc. in addition to the compounds) were dropped in the amount of 20 μl per chamber (IQ chamber, Epitest Ltd, Finland), and patched on the right site of the upper back of the examinees, and then, after 24 hours, the patch was replaced with a new patch. A total of 9 patches were conducted, three times a week for total 3 weeks, in such manner, the skin reactions before and after patch were examined every time, and the skin reactions until 48 hours after removing the final patch were observed, and the average reactivity was observed. The skin reaction was determined according to the criteria of International Contact Dermatitis Research Group (ICDRG). In the above table, “New Material 31” refers to quercetin3-O-[3-O″-(E)-p-coumaroyl][β-D-glucopyranosyl-(1→3)-O-α-L-rhamnopyranosyl-(1→6)-O-β-D-glucopyranoside], and “New Material 32” refers to quercetin3-O-[3-O″-(E)-p-coumaroyl][α-L-rhamnopyranosyl-(1→6)-O-β-D-glucopyranoside].
compound,measurement,setting,value
"C[C@@H]1O[C@@H](OC[C@H]2O[C@@H](Oc3c(-c4ccc(O)c(O)c4)oc4cc(O)cc(O)c4c3=O)[C@H](O)[C@@H](OC(=O)/C=C/c3ccc(O)cc3)[C@@H]2O)[C@H](O)[C@H](O)[C@H]1O [New Material 32, quercetin3-O-[3-O″-(E)-p-coumaroyl][α-L-rhamnopyranosyl-(1→6)-O-β-D-glucopyranoside]]","Number of examinees who exhibited ±, +, or ++ reactivity, 1st","0.5 wt. %, line 1 of 3 (±)",0 number
same,"Number of examinees who exhibited ±, +, or ++ reactivity, 1st","0.5 wt. %, line 2 of 3 (+)",0 number
same,"Number of examinees who exhibited ±, +, or ++ reactivity, 1st","0.5 wt. %, line 3 of 3 (++)",0 number
same,"Number of examinees who exhibited ±, +, or ++ reactivity, 2nd","0.5 wt. %, line 1 of 3 (±)",0 number
same,"Number of examinees who exhibited ±, +, or ++ reactivity, 2nd","0.5 wt. %, line 2 of 3 (+)",0 number
same,"Number of examinees who exhibited ±, +, or ++ reactivity, 2nd","0.5 wt. %, line 3 of 3 (++)",0 number
same,"Number of examinees who exhibited ±, +, or ++ reactivity, 3rd","0.5 wt. %, line 1 of 3 (±)",0 number
same,"Number of examinees who exhibited ±, +, or ++ reactivity, 3rd","0.5 wt. %, line 2 of 3 (+)",0 number
same,"Number of examinees who exhibited ±, +, or ++ reactivity, 3rd","0.5 wt. %, line 3 of 3 (++)",0 number
same,"Number of examinees who exhibited ±, +, or ++ reactivity, 4th","0.5 wt. %, line 1 of 3 (±)",0 number
same,"Number of examinees who exhibited ±, +, or ++ reactivity, 4th","0.5 wt. %, line 2 of 3 (+)",0 number
same,"Number of examinees who exhibited ±, +, or ++ reactivity, 4th","0.5 wt. %, line 3 of 3 (++)",0 number
same,"Number of examinees who exhibited ±, +, or ++ reactivity, 5th","0.5 wt. %, line 1 of 3 (±)",0 number
same,"Number of examinees who exhibited ±, +, or ++ reactivity, 5th","0.5 wt. %, line 2 of 3 (+)",0 number
same,"Number of examinees who exhibited ±, +, or ++ reactivity, 5th","0.5 wt. %, line 3 of 3 (++)",0 number
same,"Number of examinees who exhibited ±, +, or ++ reactivity, 6th","0.5 wt. %, line 1 of 3 (±)",0 number
same,"Number of examinees who exhibited ±, +, or ++ reactivity, 6th","0.5 wt. %, line 2 of 3 (+)",0 number
same,"Number of examinees who exhibited ±, +, or ++ reactivity, 6th","0.5 wt. %, line 3 of 3 (++)",0 number
same,"Number of examinees who exhibited ±, +, or ++ reactivity, 7th","0.5 wt. %, line 1 of 3 (±)",0 number
same,"Number of examinees who exhibited ±, +, or ++ reactivity, 7th","0.5 wt. %, line 2 of 3 (+)",0 number
same,"Number of examinees who exhibited ±, +, or ++ reactivity, 7th","0.5 wt. %, line 3 of 3 (++)",0 number
same,"Number of examinees who exhibited ±, +, or ++ reactivity, 8th","0.5 wt. %, line 1 of 3 (±)",0 number
same,"Number of examinees who exhibited ±, +, or ++ reactivity, 8th","0.5 wt. %, line 2 of 3 (+)",0 number
same,"Number of examinees who exhibited ±, +, or ++ reactivity, 8th","0.5 wt. %, line 3 of 3 (++)",0 number
same,average reactivity,0.5 wt. %,0
same,"Number of examinees who exhibited ±, +, or ++ reactivity, 9th","0.5 wt. %, line 1 of 3 (±)",0 number
same,"Number of examinees who exhibited ±, +, or ++ reactivity, 9th","0.5 wt. %, line 2 of 3 (+)",0 number
same,"Number of examinees who exhibited ±, +, or ++ reactivity, 9th","0.5 wt. %, line 3 of 3 (++)",0 number
same,"Number of examinees who exhibited ±, +, or ++ reactivity, 1st","1 wt. %, line 1 of 3 (±)",0 number
same,"Number of examinees who exhibited ±, +, or ++ reactivity, 1st","1 wt. %, line 2 of 3 (+)",0 number
same,"Number of examinees who exhibited ±, +, or ++ reactivity, 1st","1 wt. %, line 3 of 3 (++)",0 number
same,"Number of examinees who exhibited ±, +, or ++ reactivity, 2nd","1 wt. %, line 1 of 3 (±)",0 number
same,"Number of examinees who exhibited ±, +, or ++ reactivity, 2nd","1 wt. %, line 2 of 3 (+)",0 number
same,"Number of examinees who exhibited ±, +, or ++ reactivity, 2nd","1 wt. %, line 3 of 3 (++)",0 number
same,"Number of examinees who exhibited ±, +, or ++ reactivity, 3rd","1 wt. %, line 1 of 3 (±)",0 number
same,"Number of examinees who exhibited ±, +, or ++ reactivity, 3rd","1 wt. %, line 2 of 3 (+)",0 number
same,"Number of examinees who exhibited ±, +, or ++ reactivity, 3rd","1 wt. %, line 3 of 3 (++)",0 number
same,"Number of examinees who exhibited ±, +, or ++ reactivity, 4th","1 wt. %, line 1 of 3 (±)",0 number
same,"Number of examinees who exhibited ±, +, or ++ reactivity, 4th","1 wt. %, line 2 of 3 (+)",0 number
same,"Number of examinees who exhibited ±, +, or ++ reactivity, 4th","1 wt. %, line 3 of 3 (++)",0 number
same,"Number of examinees who exhibited ±, +, or ++ reactivity, 5th","1 wt. %, line 1 of 3 (±)",0 number
same,"Number of examinees who exhibited ±, +, or ++ reactivity, 5th","1 wt. %, line 2 of 3 (+)",0 number
same,"Number of examinees who exhibited ±, +, or ++ reactivity, 5th","1 wt. %, line 3 of 3 (++)",0 number
same,"Number of examinees who exhibited ±, +, or ++ reactivity, 6th","1 wt. %, line 1 of 3 (±)",0 number
same,"Number of examinees who exhibited ±, +, or ++ reactivity, 6th","1 wt. %, line 2 of 3 (+)",0 number
same,"Number of examinees who exhibited ±, +, or ++ reactivity, 6th","1 wt. %, line 3 of 3 (++)",0 number
same,"Number of examinees who exhibited ±, +, or ++ reactivity, 7th","1 wt. %, line 1 of 3 (±)",0 number
same,"Number of examinees who exhibited ±, +, or ++ reactivity, 7th","1 wt. %, line 2 of 3 (+)",0 number
same,"Number of examinees who exhibited ±, +, or ++ reactivity, 7th","1 wt. %, line 3 of 3 (++)",0 number
same,"Number of examinees who exhibited ±, +, or ++ reactivity, 8th","1 wt. %, line 1 of 3 (±)",0 number
same,"Number of examinees who exhibited ±, +, or ++ reactivity, 8th","1 wt. %, line 2 of 3 (+)",0 number
same,"Number of examinees who exhibited ±, +, or ++ reactivity, 8th","1 wt. %, line 3 of 3 (++)",0 number
same,average reactivity,1 wt. %,0
same,"Number of examinees who exhibited ±, +, or ++ reactivity, 9th","1 wt. %, line 1 of 3 (±)",0 number
same,"Number of examinees who exhibited ±, +, or ++ reactivity, 9th","1 wt. %, line 2 of 3 (+)",0 number
same,"Number of examinees who exhibited ±, +, or ++ reactivity, 9th","1 wt. %, line 3 of 3 (++)",0 number
same,"Number of examinees who exhibited ±, +, or ++ reactivity, 1st","3 wt. %, line 1 of 3 (±)",0 number
same,"Number of examinees who exhibited ±, +, or ++ reactivity, 1st","3 wt. %, line 2 of 3 (+)",0 number
same,"Number of examinees who exhibited ±, +, or ++ reactivity, 1st","3 wt. %, line 3 of 3 (++)",0 number
same,"Number of examinees who exhibited ±, +, or ++ reactivity, 2nd","3 wt. %, line 1 of 3 (±)",0 number
same,"Number of examinees who exhibited ±, +, or ++ reactivity, 2nd","3 wt. %, line 2 of 3 (+)",0 number
same,"Number of examinees who exhibited ±, +, or ++ reactivity, 2nd","3 wt. %, line 3 of 3 (++)",0 number
same,"Number of examinees who exhibited ±, +, or ++ reactivity, 3rd","3 wt. %, line 1 of 3 (±)",0 number
same,"Number of examinees who exhibited ±, +, or ++ reactivity, 3rd","3 wt. %, line 2 of 3 (+)",0 number
same,"Number of examinees who exhibited ±, +, or ++ reactivity, 3rd","3 wt. %, line 3 of 3 (++)",0 number
same,"Number of examinees who exhibited ±, +, or ++ reactivity, 4th","3 wt. %, line 1 of 3 (±)",0 number
same,"Number of examinees who exhibited ±, +, or ++ reactivity, 4th","3 wt. %, line 2 of 3 (+)",0 number
same,"Number of examinees who exhibited ±, +, or ++ reactivity, 4th","3 wt. %, line 3 of 3 (++)",0 number
same,"Number of examinees who exhibited ±, +, or ++ reactivity, 5th","3 wt. %, line 1 of 3 (±)",0 number
same,"Number of examinees who exhibited ±, +, or ++ reactivity, 5th","3 wt. %, line 2 of 3 (+)",0 number
same,"Number of examinees who exhibited ±, +, or ++ reactivity, 5th","3 wt. %, line 3 of 3 (++)",0 number
same,"Number of examinees who exhibited ±, +, or ++ reactivity, 6th","3 wt. %, line 1 of 3 (±)",0 number
same,"Number of examinees who exhibited ±, +, or ++ reactivity, 6th","3 wt. %, line 2 of 3 (+)",0 number
same,"Number of examinees who exhibited ±, +, or ++ reactivity, 6th","3 wt. %, line 3 of 3 (++)",0 number
same,"Number of examinees who exhibited ±, +, or ++ reactivity, 7th","3 wt. %, line 1 of 3 (±)",0 number
same,"Number of examinees who exhibited ±, +, or ++ reactivity, 7th","3 wt. %, line 2 of 3 (+)",0 number
same,"Number of examinees who exhibited ±, +, or ++ reactivity, 7th","3 wt. %, line 3 of 3 (++)",0 number
same,"Number of examinees who exhibited ±, +, or ++ reactivity, 8th","3 wt. %, line 1 of 3 (±)",0 number
same,"Number of examinees who exhibited ±, +, or ++ reactivity, 8th","3 wt. %, line 2 of 3 (+)",0 number
same,"Number of examinees who exhibited ±, +, or ++ reactivity, 8th","3 wt. %, line 3 of 3 (++)",0 number
same,average reactivity,3 wt. %,0
same,"Number of examinees who exhibited ±, +, or ++ reactivity, 9th","3 wt. %, line 1 of 3 (±)",0 number
same,"Number of examinees who exhibited ±, +, or ++ reactivity, 9th","3 wt. %, line 2 of 3 (+)",0 number
same,"Number of examinees who exhibited ±, +, or ++ reactivity, 9th","3 wt. %, line 3 of 3 (++)",0 number
same,skin reactivity (ICDRG criteria),"within the range of contents 0.5 wt. %, 1 wt. %, 3 wt. %",−
